Laboratory results published in ChEMBL document CHEMBL5576091, “2'-β-Methylselenyl nucleos(t)ide analogs as reverse transcriptase inhibitors against diverse HIV mutants” (Bioorg Med Chem, 2024).
The source made the active and inactive calls. The rule behind the calls is not given here.

Columns and labels:
[1] = test system: Human immunodeficiency virus 1; experiment: Antiviral activity against wild type HIV-1 infected in human TZM-bl cells incubated for 48 hrs by steady glo reagent based […] luminometer analysis; assay type: functional, organism-based; settings: Human immunodeficiency virus 1, TZM-bl
[2] = test system: Human immunodeficiency virus 1; experiment: Antiviral activity against multidrug resistant HIV-1 harboring RT M41L/T69SSG/T215Y mutant infected in human TZM-bl cells incubated for 48 hrs by steady glo reagent based […] luminometer analysis; assay type: functional, organism-based; settings: Human immunodeficiency virus 1, TZM-bl
[3] = test system: Human immunodeficiency virus 1; experiment: Antiviral activity against lamivudine resistant HIV-1 harboring RT M184V mutant infected in human TZM-bl cells incubated for 48 hrs by steady glo reagent based […] luminometer analysis; assay type: functional, organism-based; settings: Human immunodeficiency virus 1, TZM-bl
[4] = Cytotoxicity against human MT4 cells assessed as reduction in cell viability incubated for 5 days by MTT assay; assay type: toxicity, cell-based; settings: time 5 day
[5] = Cytotoxicity against human TZM-bl cells assessed as reduction in cell viability incubated for 48 hrs by MTT assay; assay type: toxicity, cell-based
[6] = test system: Human immunodeficiency virus 1; experiment: Antiviral activity against azidothymidine resistant HIV-1 harboring RT M41L/T215Y mutant infected in human TZM-bl cells incubated for 48 hrs by steady glo reagent based […] luminometer analysis; assay type: functional, organism-based; settings: Human immunodeficiency virus 1, TZM-bl
[7] = target: Human immunodeficiency virus type 1 reverse transcriptase (Human immunodeficiency virus 1) (UniProt Q72547); experiment: Substrate activity at HIV-1 reverse transcriptase assessed as formation of single elongation product at 50 to 400 uM incubated for 60 mins in presence of 14.4 ng/uL enzyme, FAM labeled primer DNA, template RNA, dNTPs by fluorescence based primer extension assay; settings: dose 50-400 µM
[8] = target: Human immunodeficiency virus type 1 reverse transcriptase (Human immunodeficiency virus 1) (UniProt Q72547); experiment: (§1) Substrate activity at HIV-1 reverse transcriptase assessed as formation of single elongation product by measuring elongation efficiency at 400 uM incubated for 60 mins in presence of 3.6 ng/uL enzyme, FAM labeled 13-mer primer DNA, 20-mer template RNA, dNTPs by fluorescence based primer extension assay relative to control
[9] = target: Human immunodeficiency virus type 1 reverse transcriptase (Human immunodeficiency virus 1) (UniProt Q72547); experiment: as §1, with “5” for “60”, “14.4” for “3.6”
[10] = target: Human immunodeficiency virus type 1 reverse transcriptase (Human immunodeficiency virus 1) (UniProt Q72547); experiment: Substrate activity at HIV-1 reverse transcriptase assessed as formation of single elongation product at 100 uM incubated for 60 mins in presence of FAM labeled 13-mer primer DNA, 20-mer template RNA, dNTPs by fluorescence based primer extension assay
[11] = target: Human immunodeficiency virus type 1 reverse transcriptase (Human immunodeficiency virus 1) (UniProt Q72547); experiment: Substrate activity at HIV-1 reverse transcriptase assessed as 15-mer product formation incubated for 60 mins in presence of 14.4 ng/uL enzyme, FAM labeled primer DNA, template RNA, dNTPs by fluorescence based primer extension assay; settings: dose 50-400 µM
[12] = test system: Avian myeloblastosis virus; experiment: Substrate activity at Avian myeloblastosis virus reverse transcriptase assessed as incorporation into DNA incubated for 60 mins in presence of FAM labeled primer DNA, template DNA, dNTPs by fluorescence based primer extension assay
[13] = organism: Homo sapiens; experiment: Substrate activity at Taq DNA polymerase (unknown origin) assessed as incorporation into DNA incubated for 60 mins in presence of FAM labeled primer DNA, template DNA, dNTPs by fluorescence based primer extension assay
[14] = target: Human immunodeficiency virus type 1 reverse transcriptase (Human immunodeficiency virus 1) (UniProt Q72547); experiment: Substrate activity at HIV-1 reverse transcriptase assessed as mismatch elongation mediated 20-mer product formation at 50 to 400 uM incubated for 60 mins in presence of 14.4 ng/uL enzyme, FAM labeled primer DNA, template RNA, dNTPs by fluorescence based primer extension assay; settings: dose 50-400 µM
[15] = target: Human immunodeficiency virus type 1 reverse transcriptase (Human immunodeficiency virus 1) (UniProt Q72547); experiment: Substrate activity at HIV-1 reverse transcriptase assessed as 14-mer product formation incubated for 60 mins in presence of 14.4 ng/uL enzyme, FAM labeled primer DNA, template RNA, dNTPs by fluorescence based primer extension assay; settings: dose 50-400 µM
[16] = target: Human immunodeficiency virus type 1 reverse transcriptase (Human immunodeficiency virus 1) (UniProt Q72547); experiment: as §1, with “14.4” for “3.6”
[17] = target: Human immunodeficiency virus type 1 reverse transcriptase (Human immunodeficiency virus 1) (UniProt Q72547); experiment: as §1, with “100” for “400”, “of” for “of 3.6 ng/uL enzyme,”
[18] = target: Human immunodeficiency virus type 1 reverse transcriptase (Human immunodeficiency virus 1) (UniProt Q72547); experiment: Substrate activity at HIV-1 reverse transcriptase assessed as formation of single elongation product at 400 uM in presence of 3.6 ng/uL enzyme, FAM labeled 13-mer primer DNA, 20-mer template RNA, dNTPs by fluorescence based primer extension assay; settings: time 0-60 min, TDE = time-dependent effect
[19] = organism: Homo sapiens; experiment: Substrate activity at Phi29 DNA polymerase (unknown origin) assessed as incorporation into DNA incubated for 60 mins in presence of FAM labeled primer DNA, template DNA, dNTPs by fluorescence based primer extension assay
[20] = target: Human immunodeficiency virus type 1 reverse transcriptase (Human immunodeficiency virus 1) (UniProt Q72547); experiment: Substrate activity at HIV-1 reverse transcriptase assessed as formation of multiple elongation products at 50 to 400 uM incubated for 60 mins in presence of 14.4 ng/uL enzyme, FAM labeled primer DNA, template RNA, dNTPs by fluorescence based primer extension assay; settings: dose 50-400 µM
[21] = target: Human immunodeficiency virus type 1 reverse transcriptase (Human immunodeficiency virus 1) (UniProt Q72547); experiment: Substrate activity at HIV-1 reverse transcriptase assessed as mismatch elongation mediated 19-mer product formation at 50 to 400 uM incubated for 60 mins in presence of 14.4 ng/uL enzyme, FAM labeled primer DNA, template RNA, dNTPs by fluorescence based primer extension assay; settings: dose 50-400 µM
[22] = target: Human immunodeficiency virus type 1 reverse transcriptase (Human immunodeficiency virus 1) (UniProt Q72547); experiment: Substrate activity at HIV-1 reverse transcriptase assessed as increase in multiple base elongation product at 100 uM in presence of FAM labeled 13-mer primer DNA, 20-mer template RNA, dNTPs by fluorescence based primer extension assay; settings: time 0-60 min, TDE = time-dependent effect

Row | SMILES | EC50 [1] | EC50 [2] | EC50 [3] | CC50 at 120 h [4] | CC50 at 48 h [5] | EC50 [6] | further results
1 | COc1nc(N)nc2c1ncn2[C@@H]1O[C@H](COP(=O)(N[C@@H](C)C(=O)OC(C)C)Oc2ccccc2)[C@@H](O)[C@@H]1[Se]C (stereo not given in full) | 54 µM | 61 µM | 46 µM | > 100 µM | > 100 µM | 45 µM | –
2 | C[Se][C@H]1[C@H](O)[C@@H](CO[P@@](=O)(N[C@@H](C)C(=O)OC(C)C)Oc2ccccc2)O[C@H]1n1cnc2c(N)nc(F)nc21 | > 20 µM | – | – | > 100 µM | 80 µM | – | –
3 | Nc1ncnc2c1ncn2[C@H]1CC[C@@H](COP(=O)(O)OP(=O)(O)OP(=O)(O)O)O1 | – | – | – | – | – | – | Activity [7]: Active
4 | C[Se][C@H]1[C@H](O)[C@@H](COP(=O)(O)OP(=O)(O)OP(=O)(O)O)O[C@H]1n1cnc2c(N)ncnc21 | – | – | – | – | – | – | Activity [8]: 77%; Activity [7]: Active; Activity [9]: 70%; Activity [10]: Active; Activity [11]: Dose-Dependent Effect; Activity [12]: Active; Activity [13]: inactive; Activity [14]: Active; Activity [15]: Dose-Dependent Effect; Activity [16]: 94%; Activity [17]: 80%; Activity [18]: Tde; Activity [19]: inactive; Activity [20]: Active; Activity [21]: Active
5 | C[Se][C@H]1[C@H](O)[C@@H](CO[P@@](=O)(N[C@@H](C)C(=O)OC(C)C)Oc2ccccc2)O[C@H]1n1cnc2c(N)ncnc21 | 2.2 µM | 2.8 µM | 5.7 µM | > 100 µM | > 100 µM | 5.8 µM | –
6 | C[Se][C@H]1[C@H](O)[C@@H](CO)O[C@H]1n1cnc2c(N)nc(N)nc21 | > 100 µM | > 100 µM | > 100 µM | > 100 µM | > 100 µM | > 100 µM | –
7 | C[Se][C@H]1[C@H](O)[C@@H](CO)O[C@H]1n1cnc2c(N)ncnc21 | > 100 µM | > 100 µM | > 100 µM | > 100 µM | > 100 µM | > 100 µM | –
8 | C[Se][C@H]1[C@H](O)[C@@H](CO)O[C@H]1n1cnc2c(=O)[nH]c(N)nc21 | > 100 µM | > 100 µM | > 100 µM | > 100 µM | > 100 µM | > 100 µM | –
9 | C[Se][C@H]1[C@H](O)[C@@H](CO)O[C@H]1n1ccc(=O)[nH]c1=O | – | – | – | 0.006 µM | 0.005 µM | – | –
10 | CCCC(CC)OC(=O)[C@H](C)N[P@](=O)(OC[C@H]1O[C@@H](n2cnc3c(N)ncnc32)[C@@H]([Se]C)[C@@H]1O)Oc1ccccc1 (stereo not given in full) | 2.6 µM | – | 4.4 µM | > 100 µM | > 100 µM | 5.5 µM | –
11 | Cc1cn([C@H]2C[C@H](N=[N+]=[N-])[C@@H](CO)O2)c(=O)[nH]c1=O [ZIDOVUDINE] | 0.03 µM | 13 µM | 0.022 µM | 51 µM | > 100 µM | 0.09 µM | –
12 | C[Se][C@H]1[C@H](O)[C@@H](COP(=O)(N[C@@H](C)C(=O)OC(C)C)Oc2ccccc2)O[C@H]1n1cnc2c(N)nc(N)nc21 (stereo not given in full) | > 0.8 µM | – | – | 5.5 µM | 2.8 µM | – | –
13 | C[Se][C@H]1[C@H](O)[C@@H](COP(=O)(N[C@@H](C)C(=O)OC(C)C)Oc2ccccc2)O[C@H]1n1cnc2c(N)ncnc21 (stereo not given in full) | 3.7 µM | 3.8 µM | 6.8 µM | > 100 µM | > 100 µM | 7 µM | –
14 | O=c1[nH]cnc2c1ncn2[C@H]1CC[C@@H](CO)O1 [DIDANOSINE] | 4.2 µM | 25 µM | 7.1 µM | > 100 µM | > 100 µM | 4.6 µM | –
15 | C[Se][C@H]1[C@H](O)[C@@H](CO)O[C@H]1n1cc(C)c(=O)[nH]c1=O | – | – | – | 0.72 µM | 0.25 µM | – | –
16 | C[Se][C@H]1[C@H](O)[C@@H](CO)O[C@H]1n1cnc2c(N)nc(F)nc21 | > 20 µM | > 20 µM | > 20 µM | 12 µM | 29 µM | > 20 µM | –
17 | COc1nc(N)nc2c1ncn2[C@@H]1O[C@H](CO)[C@@H](O)[C@@H]1[Se]C | > 20 µM | > 20 µM | > 20 µM | > 100 µM | > 100 µM | > 20 µM | –
18 | C[Se][C@H]1[C@H](O)[C@@H](COP(=O)(N[C@@H](C)C(=O)OC(C)C)Oc2ccccc2)O[C@H]1n1cnc2c(=O)[nH]c(N)nc21 (stereo not given in full) | > 20 µM | – | – | 51 µM | 63 µM | – | –
19 | C[Se][C@H]1[C@H](O)[C@@H](COP(=O)(N[C@@H](C)C(=O)OC(C)C)Oc2ccccc2)O[C@H]1n1ccc(=O)[nH]c1=O (stereo not given in full) | – | – | – | 0.007 µM | 0.004 µM | – | –
20 | Nc1ncnc2c1ncn2[C@H]1C[C@H](O)[C@@H](COP(=O)(O)OP(=O)(O)OP(=O)(O)O)O1 | – | – | – | – | – | – | Activity [22]: Tde
21 | C[Se][C@H]1[C@H](O)[C@@H](COP(=O)(N[C@@H](C)C(=O)OC(C)C)Oc2ccccc2)O[C@H]1n1cc(C)c(=O)[nH]c1=O (stereo not given in full) | – | – | – | 0.007 µM | 0.006 µM | – | –
22 | Nc1ccn([C@@H]2CS[C@H](CO)O2)c(=O)n1 [LAMIVUDINE] | 0.52 µM | 9.8 µM | > 100 µM | > 100 µM | > 100 µM | 0.85 µM | –
